# According to patent publication US20130039956A1, “USE OF NITROCARBOXYLIC ACIDS FOR THE TREATMENT, DIAGNOSIS AND PROPHYLAXIS OF AGGRESSIVE HEALING PATTERNS” (priority 2010, published 2013):
# Columns and labels:
# [1] = test system: female Sprague-Dawley rats; assay: Fibrogenesis in an in-vivo model of soft implant implantation; set-up: species or system rat; settings: subcutaneous implants, 120 days, compared with native FA
# Experimental: Silicone bag-gel miniprostheses (POLYTECH Health & Aesthetics GmbH, Dieburg, Germany) having a diameter of 2 cm and a volume of approximately 2 ml were used. […] The experimentally used implant models had two small tags which allowed the implants to be suspended during the coating procedures.
# Each implant was treated in the following manner: cleaning by sonication for 2 min each in the following sequence of solvents: acetone, toluene, acetone, ethanol, and water. Implants were exposed to Piranha solution for 60 min and rinsed with deionized water. They were then immersed in a 20% aqueous solution of ammonium fluoride for 45 min to obtain a hydrogen-passivated Si surface. The ammonium fluoride solution was sparged with nitrogen for 15 min to remove dissolved oxygen. Prepared implants were transferred to a glass chamber filled with an inert atmosphere where they were suspended so that no part of their surface came in contact with the container. The container was filled with a 1-hexadecene solution and heated at 150° C. at a pressure of 2 Torr for 120 min. Prepared implants were cleaned in the following sequence of solvents: acetone, ethanol, and water. Formation of self assembled monolayer was controlled by measuring surface hydrophobicity; the contact angle was about 105°. Dry implants suspended in the container were then bathed in an ethanolic solution of oleic acid or nitro-oleic acid at a temperature of 40° C. for 120 min. Thereafter, the solution was allowed to run out slowly through an outlet at the bottom of the container. The emptying container was filled with inert gas in which the samples were maintained for 24 hours. Then samples were bathed three times in an ethanolic solution, followed by a final rinsing with sterile water. After drying, the container with the prepared implant was sterilized using ethylene oxide and stored at 20° C.
# For in vivo testing, 24 uncoated and 24 coated implants were investigated in 24 female Sprague-Dawley rats (190-230 g). In the anesthetized animals, bilateral dorsal pockets in the subcutaneum were created by blunt dissection through paired paravertebral incisions. Each animal received one coated implant and one control implant on opposite sides, alternating sides on successive animals. Animals were housed and fed according to institutional standards for 120 days. Animals were sacrificed with chloroform. The implants and the adhering tissue were extracted by en bloc resection. The implants were cannulated and the liquid silicone gel was replaced by paraffin. Thereafter, the complete tissue block was prepared by standard means of histology, and stained with H&E or Masson's trichrome.
# [2] = test system: human dermal fibroblasts; assay: Extra cellular matrix production (collagen-1) in response to TGF-β2 in dermal fibroblasts; type: cell-based; settings: 10 and 50 μmol, TGF-β2 25 ng/ml, 48 hours; compared with native FA
# Experimental: In order to determine whether PPRA gamma stimulation due to nitrated fatty acids plays a role in the inventive inhibition of an aggressive healing pattern to an irritating stimulus, human dermal fibroblasts were investigated. A dominant-negative PPAR gamma mutant (L466A) cell clone was generated by polymerase chain reaction-based site-directed mutagenesis. Presence of PPAR gamma or absence was investigated using a PPAR gamma antibody reaction which was determined using an enhanced chemiluminescence detection system. Furthermore, one cell series was incubated with a selective irreversible PPAR gamma ligand (GW9662, 1 μmol), which effectively blocks PPAR gamma receptors.
# Sequential cultivation of human dermal fibroblasts was performed in EMEM containing 5 mM glucose supplemented with 10% FCS under standard cultivation conditions. Cells were allowed to grow to confluence in a 96-well plate. Wild-type fibroblasts and PPAR gamma deficient fibroblasts were investigated by a set-up of 2×10 sample sets comprising: (1) blank control; (2) stimulation control; (3) preincubation with the PPAR gamma antagonist GW9662 (Cayman Chemical); (4) preincubation with the PPAR agonist troglitazone (25 μmol). In 2×4 sample sets, native fatty acids were added to the medium to achieve a final concentration of 10 and 50 μmol, respectively; in another 2×4 sets the nitrated fatty acids were added to the medium in the same concentration, while 2×2 sets served as controls. In 10 of the sets, TGF-β2 was added to the culture medium at a concentration of 25 ng/ml. Cultivation was continued for 48 hours and then processed in order to analyze collagen-1 as measured by enhanced chemiluminescence detection of immuncomplexes.
# [3] = test system: fibroblasts; assay: Biofouling and cell adherence at prosthetic materials (dip-coated polymer films); type: cell-based; settings: compared with native FA (control)
# Experimental: Polymer scaffolds (polyurethane, polyvinylchloride, polylactate) which are used as implant materials were investigated. Solid and porous (pore sizes ranging from 50 to 150 micrometer) films of pure polymer scaffolds were cut into pieces (5×5 mm). After cleaning with NaOH and ethanol, they were dip-coated with native and nitrocarboxylic acids. Dip-coated pieces were suspended in a tube filled with argon and heated at 60° C. for 24 hours in the dark. Film pieces with and without coating were placed in a borosilicate glass tube that allowed fixation of two margins of the film pieces at the wall of the glass tube, thus, enabling a upright standing position in the center of the tube. Tubes were filled with various solutions for 12 hours. Solutions consisted of the following: 0.9% saline; 2% bovine albumin; 2% bovine albumin with addition of either fibronectin or laminin; and bovine serum. At the end of the exposure time, tubes were gently washed twice with 0.9% saline solution. One set of films was analyzed for protein absorption using a specific antibody staining method. An identically prepared set of films was further processed for cell cultures. A suspension containing preincubated fibroblasts in 1% FCS was added to the film-containing tubes. The tubes were tilted and adjusted in such a position so that the films were in a vertical orientation within the suspension. […] Tubes had two openings at the upper half (of the tilt tubes) that allowed free exchange of the atmosphere above the solution with the surrounding atmosphere. Sets were incubated at standard conditions for 24, 48, and 96 hours, respectively. Thereafter, films were carefully removed and rinsed with 0.9% saline solution. The cellularity and the shape of the cells on both sides of the films were evaluated after staining (Gimsa) using a reflected light microscope.
# [4] = test system: Human peripheral blood mononuclear cells (PBMCs); assay: Adhesion of serum proteins and monocyte activation induced by coated silicone; type: cell-based; settings: dip-coated silicone, PBMCs 3 days; compared with native FA
# Experimental: In order to determine the effect of coating implant materials with nitro fatty acids to reduce adsorption of adhesion molecules and monocyte activation, sterile silicone sheets were out in small pieces and coated with respective nirocarboxylic acid and the corresponding native fatty acids by dip coating. Uncoated silicone pieces served as controls. For each fatty acid two sets of silicone pieces were bathed in freshly drawn human serum for 1 hour at 37° C., and another two sets were bathed in saline solutions. One set of both coated and uncoated pieces was analyzed immediately for adhesion proteins and the other set was placed in 96-well plates after rinsing the silicone pieces. Human peripheral blood mononuclear cells (PBMCs), isolated from three healthy subjects, were added to each well. Wells were incubated for 3 days under standard conditions. Culture supernatants were assayed for IL-1beta, IL-6, IL-8, and chemoattractant protein 1 (MCP-1) levels at the start and end of experiments.
# Before analyzing the silicone pieces for protein adsorption, they were bathed in saline for 5 minutes. Thereafter, one side was rinsed with saline as performed for both sides in the set used for culturing. There was marked adsorption of fibrinogen and […] C5b-9 on the uncoated silicone. […] No protein was found on the surface of the nitro fatty acid-coated sample that was rinsed, thus, indicating the weak adherence of serum proteins.
# Also: key: 0: not superior to native FA (control); +: Superior to native FA; ++: superior to both; +++: outstanding effect.
Structure (SMILES),Relative effect of surface coating on fibrogenesis around silicone implants [1],Relative effect on collagen-1 production in response to TGF-β2 [2],Relative differences: effect on biofouling and cell adherence [3],Relative effect on serum protein adhesion and monocyte activation [4]
"CCCCC=C(C=CC=CCCCCCCCC(=O)O)[N+](=O)[O-] [compound 11, 13-nitro-octadeca-9,11,13-trienoic acid]",+,+,+,+
CCCCCC/C=C(/CCCCCCCC(=O)O)[N+](=O)[O-] [compound 13],+,+,+,+
"CCCCCC=CCC=C(CC=CCC=CCCCC(=O)O)[N+](=O)[O-] [compound 14, 11-nitro-5,8,11,14-eicosatrienoic acid]",+,+,+,+
"CCCCCC/C=C(\CCCCCCCC(=O)O)[N+](=O)[O-] [compound 16, 9-nitro-9-trans-hexadecenoic acid]",0,0,++,0
"CCCCCC=CCC=C(CC=CC/C=C\CCCC(=O)O)[N+](=O)[O-] [compound 22, 11-nitro-cis-5,8,11,14-eicosatetraenoic acid]",++,++,+,+
